Literature values in US6509043B1, “Composition comprising soy protein, dietary fibres and a phytoestrogen compound and use thereof in the prevention and/or treatment of pulmonary diseases” (Nutri Pharma ASA, priority 2001, dated 2003).

Tested on: estrogenic effect
Settings: in vitro; reported by Knight (Maturitas 22, 167-175 (1995))

## O=c1c(-c2ccc(O)cc2)coc2cc(O)ccc12 [daidzein]
  relative estrogenic potency as compared to estradiol (relative potency of 100): 0.013
